Test results from patent US20180344725A1, “QUINOLONE CHALCONE COMPOUNDS AND USES THEREOF” (priority 2015, published 2018).

What was measured:
[1] = system: MCF-7; assay: SRB-based cytotoxicity assay; assay type: cell-based, human; settings: Homo sapiens, MCF7; MCF-7; SRB; Table 2
Description: (§1) For (anti)proliferation assays, 4,000-5,000 cells/well of the 96-well clustered dish were incubated for 16 hours, as described previously (Hu et al., 2008; Skehan et al., 1990). After 16 hours, culture medium was replaced with fresh medium containing different dilutions of test compounds dissolved in DMSO. Some wells were treated with 100 μl of 10% trichloroacetic acid (TCA) as a negative control and sham (medium with dimethyl sulfoxide; DMSO) treated cells were used as a positive control. After 72 hours post-incubation, medium was removed and cells were fixed with 10% TCA at 4° C. for 1 hour. TCA was removed and cells were washed with cold tap water, and plate was air-dried, followed by addition of 50 μl of 0.4% SRB staining solution to each well. After 30 minutes incubation, SRB staining solution was removed. Cells were washed with 1% acetic acid solution, and then washed with tap water to remove unbound staining solution, followed by air-drying. 200 μl of 10 mM (pH10.5) trizma base buffer was added to each well to solubilise macromolecules. SRB stained macromolecules were determined at a 540 nm wavelength using an automated plate reader (Synergy H4 Hybrid Multi-Mode Microplate Reader, BioTek, Winooski, Vt.). Cell growth (inhibition) was calculated by the following formula:
(§2) % cells proliferation=[(AT−CT)/(ST−CT)]×100
(§3) wherein AT=absorbance of treated cells, CT=absorbance of negative control cells, and ST=absorbance of sham treated cells. IC50 values were calculated from sigmoidal dose-response curves generated by two independent biological replicates, with quadruplicate in each set by using Graph Pad Prism v.5.04 software. […] The combinational index (CI) was calculated as described previously (Chou 2006). If the CI values were less than, equal to or more than 1, it indicates a synergistic, additive or antagonistic effect respectively (Chou 2006). CI values were determined from four independent experiments.

[2] = system: MDA-MB-231; assay: SRB-based cytotoxicity assay; assay type: cell-based, human; settings: Homo sapiens; MDA-MB-231; SRB; Table 2
Description: as §1, §2, §3

[3] = system: MDA-MB-468; assay: SRB-based cytotoxicity assay; assay type: cell-based, human; settings: Homo sapiens; MDA-MB-468; SRB; Table 2
Description: as §1, §2, §3

[4] = system: 184B5; assay: SRB-based cytotoxicity assay; assay type: cell-based; settings: Homo sapiens; 184B5 non-cancer; SRB; Table 2
Description: as §1, §2, §3

[5] = system: K562; assay: SRB-based cytotoxicity assay; assay type: cell-based; settings: Homo sapiens, Table 2
Description: as §1, §2, §3

[6] = system: MDA-MB-231 human metastatic breast cancer cells; assay: Anti-tumor activity in xenograft mice; assay type: in vivo; settings: Tax 10 mg/kg I.V. once/week, CTR 30 mg/kg I.P. every 3 days, or Tax 5 + CTR 15 mg/kg once/week
Description: Five-week old female CD-1 and ATH490 (strain code 490) athymic nude mice were purchased from Charles River (Quebec, Canada). The MDA-MB-231 human metastatic breast cancer cells were obtained from the American Tissue Culture Collection (ATCC, Manassas, Va., USA). Cells were maintained under humidified conditions at 37° C. and 5% CO2 in DMEM high glucose medium (ATCC) supplemented with 10% fetal bovine serum and antibiotics.
For paclitaxel treatments, 40 mg/ml stock solution of paclitaxel (Sigma, MO) was prepared in DMSO. Just before administration to mice, the paclitaxel stock solution was diluted ten-fold in a buffer containing 10% DMSO, 12.5% Cremophor, 12.5% ethanol, and 65% saline-based diluent (0.9% sodium chloride, 5% polyethylene glycol, and 0.5% tween-80) which is defined as vehicle (Huang et al., 2006). Alanine transaminase (ALT, SUP6001-c)/Aspartate transaminase (AST, SUP6002-c) color endpoint assay kits were purchased from ID Labs Biotechnology (London, Ontario, Canada). Elevation of ALT and AST levels in serum samples was used as an indicator of liver damage/injury.
To determine the anti-tumor activity of CTR compounds in animals, a xenograft model of human breast cancer cells in athymic nude mice was established. Exponentially growing MDA-MB-231 metastatic breast cancer cells were harvested and counted for inoculation into mice. Each mouse was subcutaneously injected at the flank with 10×10^6 cells in 0.2 ml ice cold 1×PBS. When tumor size reached 4-5 mm in diameter (n=4-5 per group), mice were randomly assigned into several groups as described herein.
Animals were monitored for food and water consumption every day, and their body weights and tumor volumes were measured twice per week. Tumor volumes were measured with a digital caliper and were determined by using the following formula: ½ length×width^2. Blood samples were collected via cardiac puncture and processed further for ALT and AST measurements. The animals were then immediately euthanized by carbon dioxide. Tumors and vital organs (spleen, kidney, liver and lung) were collected and fixed in 10% buffered formalin at 4° C. overnight before being processed for paraffin embedding. The paraffin-embedded blocks were then cut into 4-5 μm thick sections. Each section of tumors and organs was stained with hematoxylin and eosin (H&E).

[7] = system: KB-C-1; assay: SRB-based cytotoxicity assay; assay type: cell-based; settings: Homo sapiens, KBC-1; KB-C-1, multidrug naïve
Description: (§4) 1845B5 and MCF-10A non-cancer breast cell lines were cultured in DME/F12 medium supplemented with 10% fetal bovine serum, antibiotics and growth factors. […] The human small cell lung carcinoma H69 cell line and its multidrug-resistant MRP1-overexpressing isogenic H69AR cell line were purchased from ATCC. […] H69 cells grow as large multi-cell aggregates, making it difficult to accurately count cell numbers. […] The IL-6 dependent bortezomib-resistant ANBL6-BR cell line was further supplemented with 1 ng/ml of IL-6. The MCF10AT1 and MCF10CA1a cell lines are isogenic to the MCF10A cell line, and obtained from Dr. Valerie Weaver at the Center for Bioengineering and Tissue Regeneration, UCSF, CA, USA. […] The drug-resistant cells were cultured in the absence of drug for at least one passage before carrying out experiments. All cells were maintained in a humidified incubator at 37° C. […] Cell line authentication was performed using short tandem repeat (STR) profiling. […] Some wells were treated with 100 μl of 10% trichloroacetic acid (TCA) as a negative control and sham (medium with dimethyl sulfoxide; DMSO) treated cells were used as a positive control. […] TCA was removed and cells were washed with cold tap water, and plate was air-dried, followed by addition of 50 μl of 0.4% SRB staining solution to each well. After 30 minutes incubation, SRB staining solution was removed. Cells were washed with 1% acetic acid solution, and then washed with tap water to remove unbound staining solution, followed by air-drying. 200 μl of 10 mM (pH10.5) trizma base buffer was added to each well to solubilise macromolecules. […] Cell growth (inhibition) was calculated by the following formula: % cells proliferation=[(AT-CT)/(ST-CT)]×100 wherein AT=absorbance of treated cells, CT=absorbance of negative control cells, and ST=absorbance of sham treated cells. […] CI values were determined from four independent experiments.

[8] = system: KB-C-2; assay: SRB-based cytotoxicity assay, single and combination with paclitaxel; assay type: cell-based, human; settings: KB-C-2 versus KB-C-1
Description: as §4

[9] = system: H69AR; assay: SRB-based cytotoxicity assay; assay type: cell-based, human; settings: H69AR versus SW-1271
Description: as §4

| SMILES | IC50 [1] | IC50 [2] | IC50 [3] | IC50 [4] | IC50 [5] | tumor size (volume) ([6]; Day 0) | tumor size (volume) ([6]; Day 6) | tumor size (volume) ([6]; Day 14) | tumor size (volume) ([6]; Day 17) | tumor size (volume) ([6]; Day 20) | tumor size (volume) ([6]; Day 24) | tumor size (volume) ([6]; Day 27) | tumor size (volume) ([6]; Day 30) | IC50 [7] | Resistance (fold) [8] | Resistance (fold) [9] |
| --- | --- | --- | --- | --- | --- | --- | --- | --- | --- | --- | --- | --- | --- | --- | --- | --- |
| COc1ccc2cc(/C=C/C(=O)c3ccccc3OC)c(=O)[nH]c2c1 [CTR-19, (E)-7-Methoxy-3-(3-(2-methoxyphenyl)-3-oxoprop-1-enyl) quinolin-2(1H)-one] | 1.93 µM | 5.11 µM | 1.91 µM | 3.94 µM | 0.95 ± 0.65 µM | 92.51 mm^3 | 84.79 mm^3 | 99.68 mm^3 | 92.27 mm^3 | 115.39 mm^3 | 124.76 mm^3 | 143.62 mm^3 | 200.77 mm^3 | – | – | – |
| COc1ccccc1C(=O)/C=C/c1cc2cc(C)ccc2[nH]c1=O [CTR-18, (E)-3-(3-(2-Methoxyphenyl)-3-oxoprop-1-enyl)-6-methylquinolin-2(1H)-one] | 0.12 µM | 0.93 µM | 0.08 µM | 3.89 µM | 0.21 ± 0.02 µM | 92.51 mm^3 | 111.09 mm^3 | 138.10 mm^3 | 145.48 mm^3 | 166.84 mm^3 | 143.78 mm^3 | 141.52 mm^3 | 253.37 mm^3 | – | – | – |
| CC[C@]1(O)C[C@@H]2CN(CCc3c([nH]c4ccccc34)[C@@](C(=O)OC)(c3cc4c(cc3OC)N(C)[C@H]3[C@@](O)(C(=O)OC)[C@H](OC(C)=O)[C@]5(CC)C=CCN6CC[C@]43[C@@H]65)C2)C1 [Vinblastine, reference compound] | – | – | – | – | – | – | – | – | – | – | – | – | – | 0.00061 ± 9e-05 µM | 15.20 fold | 5.82 fold |
